Measurements taken from patent publication US20230277491A1, “PHARMACEUTICAL COMBINATION COMPRISING GLYCOLIC ACID AND L-ALANINE” (priority 2020, published 2023).

Experiments:
[1] = system: dopaminergic neurons; details: cited from earlier work
[2] = system: HeLa cells treated with siRNA against PARK-7/DJ-1; assay: Calcium imaging on HeLa cells during mitosis after PARK-7/DJ-1 down-regulation; assay type: cell-based; details: PARK-7/DJ-1 down-regulated HeLa cells, 5 mM, FIG. 17
Experimental: HeLa cells were loaded with Fluo-4 AM, a dye used to measure calcium concentration in living cells, as described by the manufacturer and recorded for 4 hours. Graphics show the variations in intracellular calcium concentration during mitosis in WT and cells treated with siRNA against PARK-7/DJ-1 to down-regulate this gene.
HeLa-Kyoto cells stably expressing histone H2B-mCherry and mouse DJ-1 were used. Cells were maintained in DMEM supplemented with 10% fetal bovine serum (FBS), 2 mM GlutaMAX, 100 unit/ml penicillin, 100 μg/ml streptomycin. For esiRNA treatment, cells were plated at a density of 15.000 cells/well in an ibidi 8 well chamber (Cat. no 80826, ibidi, Germany, EU), transfected with different esiRNAs (RLUC as empty vector, hPARK-7 and hKIF11 as positive control) (all esiRNAs were obtained from Eupheria, Germany, EU), and left for 72 hours before performing calcium imaging. esiRNA transfection was performed as follows. esiRNA was diluted in distilled water to a concentration of 20 ng/μl. For each well, two solutions were made: 1. […]
We observed that the Fluo-4 AM dye started to leak out of the cells into the medium after 1.5 hours of imaging. […] Images were analyzed using FIJI Image Analysis Freeware (https://fiji.sc). MFI of the Fluo-4 AM signal within the cell was determined using manually selected ROIs covering the whole cell area for each time-point. […]

[3] = system: djr1.1/djr1.2 and glod-4 KO C. elegans; assay: Embryonic lethality in C. elegans (percentage of hatched eggs); assay type: in vivo; details: worms fed with substance, FIG. 18
Experimental: All C. elegans strains were maintained on NGM agar plates seeded with Escherichia coli NA22 at 15° C.

[4] = system: DJ-1 RNAi depleted HeLa cells; details: cited from earlier work
[5] = system: HeLa cells; assay: Intracellular calcium, Fluo4-AM loaded HeLa cells, fluorescent plate reader; assay type: cell-based; details: FIG. 12
Description: HeLa cells were loaded with Fluo4-AM and fluorescence was monitored with the help of a fluorescent plate reader. Values are normalized to the initial fluorescent value.

[6] = system: dopaminergic neurons; assay: Survival of dopaminergic neurons with paraquat 12.5 μM challenge (Example 5, FIGS. 19, 20); assay type: cell-based, mouse
Experimental: (§1) Dopaminergic neurons were isolated and plated at a concentration of 1.000.000 cells/ml (100 μl/well) in a 96 well plate and cultured in medium with one or more of the various factors indicated, as described in the examples below. The survival of dopaminergic neurons in the presence and absence of various agents of the invention, either with or without paraquat challenge, is shown by the number of TH positive neurons normalized to the control treatment.
Dopaminergic neurons were isolated and plated at a concentration of 1.000.000 cells/ml (100 μl/well) in a 96 well plate. After 3-4 hours incubation at 37° C., 20 μl of medium was removed from each well. (VF=80 μl). Changes in medium and start point of the treatment were on the following day in vitro (DIV). The following protocol was employed to assess the survival of dopaminergic neurons in the presence and absence of various agents of the inventive combination, either with or without paraquat challenge. • DIV.1: Change half of medium N2 (40 μl) with fresh medium N2. • DIV.3: Change half of the medium and start with medium (control) or with medium A containing PB (0.15 mM) and TUDCA (0.5 mM), or with Medium A containing GA (normally 1 mM, 3 mM, or 10 mM) or with Medium A containing GA (1 mM or 3 mM) and PB (0.15 mM) or with Medium A containing GA (5 mM) and TUDCA (0.5 mM) or with Medium A containing PB (0.15 mM). Medium A is N2 medium but without FBS and N2-Supplement. • DIV.5: Second round of control or treatment with different treatments. Half of the medium (40 μl) was replaced by fresh medium A with the different agents. • DIV.7: Paraquat 12.5 μM treatment starts alone or in combination with the treatments explained above. Half of the medium (40 μl) was replaced by fresh medium A with the different treatment combinations or without (control). • DIV.9: Second day of treatment with Paraquat (PQ) 12.5 μM in addition to the other treatments as explained above. • DIV.11: Fixation 2% of PFA during 20 min at 37° C. or overnight at 4° C.
The effect of the different treatments on dopaminergic neurons survival upon exposure to paraquat was assessed through of TH+ neurons after treatment. Briefly, neurons were fixed using 2% paraformaldehyde for immunocytochemical analysis after treatment. Dopaminergic TH^+ neurons per well were identified and counted using an inverted fluorescence microscope (Olympus) under a 20× objective.

[7] = 5 g tablet or powder by mouth; cited from earlier work
[8] = system: dopaminergic neurons; assay: Survival of dopaminergic neurons with paraquat 25 μM challenge (Example 1, FIG. 1); assay type: cell-based, mouse
Experimental: as §1
Dopaminergic neurons were isolated and plated at a concentration of 1.000.000 cells/ml (100 μl/well) in a 96 well plate. After 3-4 hours incubation at 37° C., 20 μl of medium was removed from each well. (VF=80 μl). Changes in medium and start point of the treatment were done in the following day in vitro (DIV). The following protocol was employed in order to assess the survival of dopaminergic neurons in the presence and absence of various agents of the invention combination, either with or without paraquat challenge. • DIV.1: Change half of medium N2 (40 μl) with fresh medium N2. • DIV.3: Change half of the medium and start with medium (control) or with medium A containing LA (different concentrations) and/or GA (normally 5 mM or 10 mM). Medium A is N2 medium but without FBS and N2-Supplement. • DIV.5: Second round of control or treatment with LA and/or GA. Half of the medium (40 μl) was replaced by fresh medium A with the different agents. • DIV.7: Paraquat 25 μM treatment starts with or without GA and L-alanine. Half of the medium (40 μl) was replaced by fresh medium A with the different treatment combinations or without (control). • DIV.9: Second day of treatment with Paraquat (PQ) 25 μM in addition to the other substances (LA and GA). • DIV.10: Fixation 2% of PFA during 20 min at 37° C. or overnight at 4° C.
Primary mesencephalic neuronal cell cultures were prepared as previously described. Briefly, E14.5 embryos were obtained from C57JBL6 pregnant mice after cervical dislocation. Brain mesencephali were dissected under the microscope and digested with Trypsin-EDTA 0.12% (Life Technologies, USA) for 7 min. The trypsin reaction was then stopped by adding basic medium (BM), containing Neurobasal A medium (Gibco, USA), 1 mg/mL Pen/Strep, 10% FCS, and […] L-Glutamine, and cells were mechanically dissociated using a fire-polished Pasteur pipette. Medium was fully replaced after 5 min, centrifugation at 1200 rpm, aspiring the supernatant and adding 8 mL of fresh BM to the pellet. Concentration of cells in the medium was estimated using a Neubauer chamber and a 100 μL of medium containing 10^6 cells/mL plated per well in a 96-well plate (Greiner Sensoplate, Germany, EU). Then a 20 μL of medium was removed from the well and 24 h later, ⅓ of the media was replaced with fresh BM. […]

[9] = human, in vivo
Description: Potential side effects were closely monitored.

[10] = estimated; cited from earlier work

Compound: C[C@@H](O)C(=O)O [DL, D-(−)-lactic acid]
- survival of dopaminergic neurons [1]: rescued the survival of dopaminergic neurons
- calcium influx during mitosis [2]: able to rescue this phenotype
- embryonic lethality (percentage of hatched eggs) [3]: rescue of embryonic lethality
- mitochondrial potential [4]: maintain or rescue mitochondrial potential
- intracellular calcium (Fluo4-AM fluorescence normalized to initial value) [5]: reduce intracellular calcium

Compound: O=C(O)CCCc1ccccc1 [PB, 4-Phenylbutyric acid, reference compound]
- number of TH positive neurons normalized to the control treatment ([6]; PQ 12.5 μM + 0.15 mM PB, FIG. 19): 0.72

Compound: sodium phenylbutyrate
- time to metabolism into phenylacetate [7]: within half an hour
- time to peak concentration in the bloodstream [7]: within an hour
- time until detected in the blood [7]: ≤ 15 min

Compound: C[n+]1ccc(-c2cc[n+](C)cc2)cc1 [PQ, Paraquat, reference compound]
- survival of dopaminergic neurons (number of TH positive neurons normalized to the control treatment) ([8]; PQ 25 μM alone): severe reduction in neuron survival
- number of TH positive neurons normalized to the control treatment ([6]; PQ 12.5 μM alone, FIG. 19): 0.58
- number of TH positive neurons normalized to the control treatment ([6]; PQ 12.5 μM alone, FIG. 20): 0.44

Compound: C[C@H](N)C(=O)O [LA, L-Alanine]
- prevention of kidney damage or stones, renal or liver disfunction [9]: sufficient to prevent any kidney damage or stones
- side effects / function of the kidney or liver [9]: avoid any unwanted side effects or reductions in function of the kidney or liver
- survival of dopaminergic neurons (rescue) ([8]; 0.01 mM LA alone with PQ 25 μM): no rescue

Compound: OCCOCCO [diethylene glycol]
- minimum toxic dose [10]: 0.14 mg glycolic acid per kg of body weight
